Measured values reported in ChEMBL document CHEMBL5032522, “N-2-(phenylamino) benzamide derivatives as novel anti-glioblastoma agents: Synthesis and biological evaluation” (Eur J Med Chem, 2021).
The source made the active and inactive calls. No cut-off for these calls is given here.

Key:
[1] = AUC (0 to t) in Sprague-Dawley rat at 100 mg/kg, ip measured up to 24 hrs by LC-MS analysis; format: ADME, organism-based; design: route intraperitoneal, dose 100 mg/kg, time <=24; conditions: in vivo
[2] = Acute toxicity in Kunming mouse assessed as death at 300 mg/kg, ip administered as single dose observed every day for 14 days; format: organism-based; conditions: in vivo, 336 h, time 14 day
U-251 [3] = assay: Inhibition of cell invasion in human U-251 cells incubated for 24 hrs by crystal violet staining based light microscopic analysis; format: functional
U-87 MG [4] = assay: Antitumor activity against human U-87 MG cells xenografted in BALB/c nude mouse assessed as tumor growth inhibition at 20 mg/kg, ip bid measured every 3 days for 25 days relative to control; format: functional, U-87MG ATCC; conditions: 600 h, time 25 day, read-out: TGI
[5] = Toxicity in BALB/c mouse xenografted with human U-87 MG cells assessed as reduction in body weight at 20 mg/kg, ip bid measured after 25 days; format: organism-based; conditions: in vivo, 600 h, time 25 day
[6] = AUC ( 0 to infinity) in Sprague-Dawley rat at 100 mg/kg, ip measured up to 24 hrs by LC-MS analysis; format: ADME, organism-based; design: route intraperitoneal, dose 100 mg/kg, time <=24; conditions: in vivo
[7] = Half life in Sprague-Dawley rat at 100 mg/kg, ip measured up to 24 hrs by LC-MS analysis; format: ADME, organism-based; conditions: in vivo
Rattus norvegicus [8] = species on record: Rattus norvegicus; assay: Upregulation of E-cadherin protein expression in Sprague-Dawley rat orthotopic model inoculated with C6 cells by Western blot analysis; format: functional
U-87 MG [9] = assay: Antitumor activity against human U-87 MG cells xenografted in BALB/c nude mouse assessed as reduction in Ki67 expression in tumor at 20 mg/kg, ip bid measured every 3 days for 25 days by immunohistochemical analysis; format: functional, organism-based; conditions: U-87MG ATCC, time 25.0 day
U-251 [10] = assay: Inhibition of colony formation in human U-251 cells measured after 8 days by crystal violet staining based assay; format: functional, cell-based; conditions: time 8.0 day
U-87 MG [11] = assay: Antiproliferative activity against human U-87 MG cells assessed as inhibition of cell growth measured after 72 hrs by CCK-8 assay; format: functional, cell-based, U-87MG ATCC
C6 = assay: Antitumor activity against rat C6 cells inoculated orthotopic Sprague-Dawley rat model assessed as reduction in tumor weight at 100 mg/kg, ip bid administered for 14 days by MRI scanner; format: functional, organism-based; conditions: time 14.0 day
U-87 MG [12] = assay: Antitumor activity against human U-87 MG cells xenografted in BALB/c nude mouse assessed as reduction in tumor weight at 20 mg/kg, ip bid measured every 3 days for 25 days; format: functional, organism-based; conditions: U-87MG ATCC, time 25.0 day
Rattus norvegicus [13] = assay: In vivo inhibition of STAT3 activation in ip dosed orthotopic Sprague-Dawley rat model inoculated with C6 cells assessed as decrease in p-STAT3 in tumor tissue by Western blot analysis; format: functional, organism-based
[14] = Ratio of drug concentration in brain to plasma in Sprague-Dawley rat at 100 mg/kg, ip measured 6 hrs post administration by LC-MS/MS analysis; format: ADME, organism-based; conditions: read-out: BPR
[15] = target: T1, DNA topoisomerase 1 (Homo sapiens) (UniProt P11387); assay: Inhibition of human topoisomerase I using DNA pBR322 as substrate assessed as DNA intercalation at 100 uM incubated for 30 mins by ethidium bromide staining based agarose gel electrophoresis method
T1 sequence (whole entry): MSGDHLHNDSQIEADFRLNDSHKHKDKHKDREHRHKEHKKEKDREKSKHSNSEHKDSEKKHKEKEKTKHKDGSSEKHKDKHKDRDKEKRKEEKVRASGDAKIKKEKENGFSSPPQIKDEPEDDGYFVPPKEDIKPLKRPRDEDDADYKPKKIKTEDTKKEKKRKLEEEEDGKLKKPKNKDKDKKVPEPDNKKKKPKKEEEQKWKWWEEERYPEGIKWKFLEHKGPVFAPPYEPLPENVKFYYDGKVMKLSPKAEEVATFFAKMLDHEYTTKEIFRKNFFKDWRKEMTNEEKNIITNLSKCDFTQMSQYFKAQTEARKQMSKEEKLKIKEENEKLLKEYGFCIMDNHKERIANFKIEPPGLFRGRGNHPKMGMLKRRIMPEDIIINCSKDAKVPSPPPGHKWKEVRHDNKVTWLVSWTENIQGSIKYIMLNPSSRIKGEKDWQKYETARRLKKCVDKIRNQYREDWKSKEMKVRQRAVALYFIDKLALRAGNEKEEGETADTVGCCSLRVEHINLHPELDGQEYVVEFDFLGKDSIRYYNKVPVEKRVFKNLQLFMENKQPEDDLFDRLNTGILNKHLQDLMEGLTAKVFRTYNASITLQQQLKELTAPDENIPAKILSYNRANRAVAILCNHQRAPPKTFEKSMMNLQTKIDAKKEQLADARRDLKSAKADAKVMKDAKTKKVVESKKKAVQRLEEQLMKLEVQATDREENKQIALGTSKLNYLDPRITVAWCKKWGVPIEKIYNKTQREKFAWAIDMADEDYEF

Rattus norvegicus [16] = species on record: Rattus norvegicus; assay: Downregulation of MMP-9 protein expression in Sprague-Dawley rat orthotopic model inoculated with C6 cells by Western blot analysis; format: functional
[17] = Acute toxicity in ip dosed Kunming mouse assessed as lethal dose measured after 14 days; format: organism-based; conditions: in vivo, time 14 day

SMILES | AUC(0-t) at 24 h [1] [ng·h/mL] | Activity [2] | inhibition (U-251 [3]) | inhibition in vivo at 20 mg/kg (U-87 MG [4]) [%] | Activity [5] | AUC(0-inf) [6] [ng·h/mL] | half-life [7] [h] | Activity (Rattus norvegicus [8]) | Activity (U-87 MG [9]) | inhibition (U-251 [10]) | IC50 (U-87 MG [11]) [µM] | Activity (C6) | Activity (U-87 MG [12]) | inhibition (Rattus norvegicus [13]) | Kp at 6 h [14] | inhibition [15] | Activity (Rattus norvegicus [16]) | LD50 at 336 h [17] [mg/kg]
COc1ccc(NC(=O)c2ccccc2Nc2cccc(Cl)c2C)cc1 | 78400 | Non-Toxic | Dose-Dependent Effect | 69.4 | Non-Toxic | 86200 | 6.7 | Active | Active | Dose-Dependent Effect | 4.77 | Active | Active | Active | 0.65 | Active | Active | 300
Cc1c(Cl)cccc1Nc1ccccc1C(=O)Nc1ccc2c(c1)OCO2 | 46200 | – | Dose-Dependent Effect | – | – | 49200 | 8.36 | – | – | Dose-Dependent Effect | 6.46 | Active | – | – | 0.29 | Active | – | 750
